This is an account of results in patent US5648366A, “Substituted pyrrolidin-3-yl-alkyl-piperidines” (Merrell Pharmaceuticals Inc., priority 1995, dated 1997).

Test [1] concerns NK2 receptor. Nature of the test: Antagonism of NKA aerosol induced respiratory effects in conscious guinea pigs. The format is in vivo, guinea pig. Particulars: 20 min prior to NKA aerosol (0.05%); for DYSPNEA ONSET: mean and SEM. The protocol:
ANTAGONISM OF NKA AND CAPSAICIN INDUCED R[…] IN CONSCIOUS GUINEA PIGS
In vivo experiments were performed using male Duncan Hartley guinea pigs (250-350 g). Changes in conscious breathing patterns were monitored in four animals simultaneously using modified whole body plethysmography consisting of four small plexiglass boxes each connected to a reference box via Validyne DP 45-16 differential pressure transducers. The 4 boxes were equipped with an air supply line (also used for aerosol delivery) and an exhaust air line. Supply and exhaust lines were of the same length and narrow bore and arose from a common supply chamber and vented to a common exhaust chamber. This system was used to ensure that fluctuations in supply air and atmospheric pressure would remain in phase and be eliminated from the net signal by the differential pressure transducers. The analog pressure signals were digitalized via a Data Translation DT2821 A to D board. Data were collected at a rate of 100 samples/second/animal. Each cycle of pressure change was analyzed using the following parameters: rising and falling slope determined between minimum and maximum pressures, the ratio of rising over falling slope, and the magnitude of the change between initial trough pressure and peak cycle pressure. Using these values (and observing the animals) the pressure cycles were characterized into normal breaths, forced exhalations (apparent by abdominal heaving), significant respiratory events (SREs; usually coughs, less often sneezes or gasps which were characterized by transient, extremely large pressure increases which were distinguishable from noise) and movement/noise with a PCAT 286 running a System V UNIX operating system. Dyspnea was defined as a significant, sustained increase in plethysmograph pressure which was associated with an observable shift to labored breathing in the animal.
During the course of a typical experiment in which airway responsiveness to various bronchoconstricting agents was examined, aerosols were delivered for 19 min (0.33 ml/min) using a DeVilbiss Ultraneb 99 ultrasonic nebulizer and animals monitored during this time. Prior to nebulization, 1 min of resting breathing was collected to establish a baseline pressure. […] The vehicle for nebulization of all bronchoconstrictive agents was phosphate buffered saline (pH 7.4) which elicited no r[…] itself. Putative tachykinin antagonists were administered either (i.v.) 20 min prior to onset of aerosol exposure or orally 1 hour prior to onset (to guinea pigs after an overnight fast).
Table 6 illustrates the effects of the compounds of Example 3; Example 20A; and Example 5A on r[…] induced by NKA aerosol. […] These effects were dose dependent i.e. the higher the dose of compound, the greater attenuation of NKA-mediated effects.

Test [2] has as its target T1, NK2 receptor (Bos taurus, UniProt P05363).
T1 construct: expressed in transfected cells; host or cells: SKLKB82#3 cells (murine B82 fibroblasts by own knowledge)
T1 sequence (P05363 1-384): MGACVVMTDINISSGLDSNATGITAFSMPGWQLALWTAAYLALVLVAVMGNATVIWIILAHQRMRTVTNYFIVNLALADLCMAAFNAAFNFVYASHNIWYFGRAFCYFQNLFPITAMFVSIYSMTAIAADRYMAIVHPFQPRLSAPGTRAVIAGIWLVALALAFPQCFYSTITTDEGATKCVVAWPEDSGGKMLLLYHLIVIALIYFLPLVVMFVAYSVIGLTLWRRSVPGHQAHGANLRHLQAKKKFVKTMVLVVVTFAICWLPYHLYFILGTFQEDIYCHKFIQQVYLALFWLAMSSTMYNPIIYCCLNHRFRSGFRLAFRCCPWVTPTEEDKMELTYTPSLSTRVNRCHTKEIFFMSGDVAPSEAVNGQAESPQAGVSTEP
Nature of the test: Antagonism of NK2 receptor mediated (NKA-induced) phosphatidylinositol turnover in SKLKB82#3 cells. The format is cell-based. The protocol: (§1) ANTAGONISM OF NK1 AND NK2 RECEPTOR MEDIATED PHOSPHATID[…]
(§2) Tachykinin-mediated inositol phosphate accumulation was measured in UC11 or SKLKB82#3 cells in the presence and absence of NK1 or NK2 receptor antagonists, respectively. Tissues were incubated in Krebs-Henseleit buffer at 37° C. with 95% O2 -5% CO2 gassing. Tissues were then incubated with fresh buffer containing 100 μCi of myo-[2-^3 H(N)] inositol at 37° C. for 60 min with gentle gassing. After washing twice in 5 ml room temperature buffer containing 10 mM LiCl, tissues were incubated for 30 min at room temperature with a buffer change at 15 min. Buffer was removed and Krebs-Henseleit buffer (containing 40 μg/ml bacitracin, 4 μg/ml each of leupeptin and chymostatin, 0.1% bovine serum albumin and 10 mM each of thiorphan and LiCl) added. After 15 min, SP was added to UC11 cells or NKA to SKLKB82#3 cells at various concentrations to start the reaction. After incubation for 60 min at room temperature the reaction was terminated by addition of 930 μl chloroform: methanol (1:2 by volume) to each tube, followed by 310 μl chloroform and 310 μl doubly distilled water. Samples were vortexed, centrifuged, and 0.9 ml of the aqueous (top) phase removed and added to 2 ml ddH2 O. The mixture was vortexed and loaded onto a 50% Bio-Rad AG 1-X8 (formate form, 100-200 mesh) exchange column (Bio-Rad Laboratories, Hercules, Calif.). The columns were washed, in order, with: 1) 10 ml doubly distilled water, 2) 5 ml of 5 mM disodium tetraborate/60 mM sodium formate, and 3) 5 ml of 1M ammonium formate/0.1M formic acid. The third elution was collected and 1 ml counted in 7 ml scintillation fluid. A 50 μl aliquot of the organic (bottom) phase was removed, dried in a scintillation vial and counted in 7 ml scintillation fluid.
(§3) The ratio of DPM in the aqueous phase aliquot (total inositol phosphates) to the DPM in the 50 μl organic phase aliquot (total [^3 H]inositol incorporated) was calculated for each sample. Data are expressed as a percent of agonist-induced accumulation of [^3 H]-inositol phosphates over basal levels. The ratios in the presence of test compound and/or standards were compared to the ratios for control samples (i.e. no stimulating agonist). Dose-response graphs were constructed and the abilities of the test compounds to inhibit tachykinin-induced phosphatidyinositol turnover determined with the aid of a computer program. […] Data is expressed as percent stimulation of total inositol phosphate accumulation over basal levels and normalized to the maximum response produced by SP. […] Schild analysis is performed using dose response curves (such as those presented in FIGS. 1a and 1b) to obtain a value indicative of the strength of a competitive antagonist and is expressed as the pA2, which is the negative logarithm of the molar concentration of antagonist which reduces the effect of a dose of agonist to one-half of that expected at the dose of agonist.

The target of another test is T2, NK1 receptor (Homo sapiens, UniProt P25103).
T2 construct: endogenous in cells; host or cells: UC11 cells
Nature of the test: Antagonism of NK1 receptor mediated (SP-induced) phosphatidylinositol turnover in UC11 cells. Format: cell-based. The protocol:
as §1, §2, §3

T2 sequence (P25103 whole entry): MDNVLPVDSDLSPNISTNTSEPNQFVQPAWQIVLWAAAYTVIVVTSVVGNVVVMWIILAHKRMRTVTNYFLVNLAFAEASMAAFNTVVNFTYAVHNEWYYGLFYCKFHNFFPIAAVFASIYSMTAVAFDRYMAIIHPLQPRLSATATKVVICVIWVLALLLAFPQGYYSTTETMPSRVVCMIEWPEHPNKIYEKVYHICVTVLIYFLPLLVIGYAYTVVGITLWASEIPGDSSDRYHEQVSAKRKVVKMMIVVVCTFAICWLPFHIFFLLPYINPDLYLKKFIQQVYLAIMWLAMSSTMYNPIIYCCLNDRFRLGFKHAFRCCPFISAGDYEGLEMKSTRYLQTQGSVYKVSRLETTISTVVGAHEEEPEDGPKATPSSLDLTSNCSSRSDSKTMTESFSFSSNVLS

In the case of `COc1cc(C(=O)N2CCC(CCN3CCC(C(N)=O)(c4ccccc4)CC3)(c3ccc(Cl)c(Cl)c3)C2)cc(OC)c1OC` (centres unmarked) [Example 3, 1-[2-[3-(3,4-dichloro-phenyl)-1-(3,4,5-trimethoxy-benzoyl)-pyrrolidin-3-yl]-ethyl]-4-phenyl-piperidine-4-carboxylic acid amide], in the test with NK2 receptor [1] (5 mg/kg), the “DYSPNEA INCIDENCE” value came to 86% and the “DYSPNEA ONSET” value worked out at 394 ± 32 s. In the test on NK2 receptor [1] (10 mg/kg), the “DYSPNEA INCIDENCE” value is on record as 60% and the “DYSPNEA ONSET” value was 801 ± 104 s. In addition, the “antagonism of NKA induced PI turnover (in words, FIG. 1b)” value on NK2 receptor [2] (SKLKB82#3 cells) was “dose related antagonism”. For the same compound, the “agonist activity, PI turnover in SKLKB82#3 cells (in words)” value at NK2 receptor [2] (compound alone) is “no agonist activity”. Further, the “antagonism of SP induced PI turnover (in words, FIG. 1a)” value at NK1 receptor (UC11 cells) was “dose related antagonism”. Also, the “agonist activity, PI turnover in UC11 cells (in words)” value at NK1 receptor (compound alone) is reported as “no agonist activity”.
